Patent US20240124431A1, “2,3-DIHYDRO-4H-BENZO[B][1,4]OXAZIN-4-YL)(5-(PHENYL)-PYRIDIN-3-YL)METHANONE DERIVATIVES AND SIMILAR COMPOUNDS AS CYP11A1 INHIBITORS FOR THE TREATMENT OF PROSTATE CANCER” (ORION CORPORATION, priority 2020, published 2024)
pIC50: −log10 of the molar value.

Biological target: T1, CYP11A1 (Homo sapiens, UniProt P05108)
T1 construct: endogenous in cells; host or cells: NCI-H295R
T1 sequence (P05108 40-521): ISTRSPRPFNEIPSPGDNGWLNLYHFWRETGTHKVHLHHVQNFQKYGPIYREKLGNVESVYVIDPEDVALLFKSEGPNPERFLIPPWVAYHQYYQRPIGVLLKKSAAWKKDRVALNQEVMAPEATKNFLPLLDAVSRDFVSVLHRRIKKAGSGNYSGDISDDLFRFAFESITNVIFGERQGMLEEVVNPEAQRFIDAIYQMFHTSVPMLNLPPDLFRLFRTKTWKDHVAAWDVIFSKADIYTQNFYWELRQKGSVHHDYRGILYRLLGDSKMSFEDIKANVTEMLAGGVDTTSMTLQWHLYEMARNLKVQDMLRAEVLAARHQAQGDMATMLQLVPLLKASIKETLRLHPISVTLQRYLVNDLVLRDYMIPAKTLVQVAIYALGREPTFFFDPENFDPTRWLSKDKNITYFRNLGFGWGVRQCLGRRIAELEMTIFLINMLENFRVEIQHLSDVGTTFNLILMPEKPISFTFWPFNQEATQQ
Test: CYP11A1 inhibition: pregnenolone biosynthesis measured by ELISA in NCI-H295R cells
Assay type: cell-based
Conditions: NCI-H295R cells treated for 24 hours, 10 concentrations in duplicates, read-out: IC50 on CYP11A1 inhibition (Group)
Protocol: The ability of the test compounds to inhibit pregnenolone biosynthesis was measured by enzyme-linked immunosorbent assay (ELISA) detecting pregnenolone (Abnova Pregnenolone ELISA Kit, KA1912). […] To determine the half maximal inhibitory concentration (IC50) of the test compounds on CYP11A1 inhibition, the cells were treated for 24 hours with increasing concentrations of the test compound. The final DMSO concentration was 0.4%. Medium samples were diluted 1:6 and pregnenolone amounts determined with ELISA. Manufacturer's recommended protocols were used and pregnenolone (Sigma-Aldrich, P9129) standards were prepared in cell culture medium. Absorbance (A450) was measured with Envision plate reader (PerkinElmer). All the test compounds were studied at 10 concentrations in duplicates.

pIC50 | Compound
5.60 to 6.70 | O=C(c1cncc(-c2cccc(OC(F)(F)F)c2)c1)N1CCOc2ccccc21 [Compound 1, (2,3-Dihydro-4H-benzo[b][1,4]oxazin-4-yl)(5-(3-(trifluoromethoxy)phenyl)-pyridin-3-yl)methanone]
> 7.30 | O=C(c1cncc(-c2ccc(F)cc2)c1)N1CCOc2cc(F)ccc21 [Compound 2, (7-Fluoro-2,3-dihydro-4H-benzo[b][1,4]oxazin-4-yl)(5-(4-fluorophenyl)pyridin-3-yl)methanone]
6.70 to 7.29 | Cc1c(C(=O)N2CCOc3ccccc32)cncc1-c1ccccc1 [Compound 3, (2,3-Dihydro-4H-benzo[b][1,4]oxazin-4-yl)(4-methyl-5-phenylpyridin-3-yl)-methanone]
6.70 to 7.29 | Cc1c(C(=O)N2CCCc3ccccc32)cncc1-c1ccccc1 [Compound 4, (3,4-Dihydroquinolin-1(2H)-yl)(4-methyl-5-phenylpyridin-3-yl)methanone]
> 7.30 | Cc1c(C(=O)N2CCOc3ccccc32)cncc1-c1ccc(F)cc1 [Compound 5, (2,3-Dihydro-4H-benzo[b][1,4]oxazin-4-yl)(5-(4-fluorophenyl)-4-methylpyridin-3-yl)methanone]
5.60 to 6.70 | O=C(c1cc(-c2ccc(F)cc2)cnn1)N1CCOc2ccccc21 [Compound 7, (2,3-Dihydro-4H-benzo[b][1,4]oxazin-4-yl)(5-(4-fluorophenyl)pyridazin-3-yl)-methanone]
> 7.30 | O=C(c1cncc(-c2ccc3ncoc3c2)n1)N1CCOc2ccccc21 [Compound 8, (6-(Benzo[d]oxazol-6-yl)pyrazin-2-yl)(2,3-dihydro-4H-benzo[b][1,4]oxazin-4-yl)methanone]
6.70 to 7.29 | O=C(c1cncc(-c2cccc(OC(F)(F)F)c2)n1)N1CCOc2ccccc21 [Compound 9, (2,3-Dihydro-4H-benzo[b][1,4]oxazin-4-yl)(6-(3-(trifluoromethoxy)phenyl)-pyrazin-2-yl)methanone]
> 7.30 | O=C(c1cncc(-c2ccccc2)c1)N1CCOc2ccccc21 [Compound 10, (2,3-Dihydro-4H-benzo[b][1,4]oxazin-4-yl)(5-phenylpyridin-3-yl)methanone]
> 7.30 | O=C(c1cncc(-c2ccc3c(c2)OCC3)n1)N1CCCc2ccccc21 [Compound 12, (6-(2,3-Dihydrobenzofuran-6-yl)pyrazin-2-yl)(3,4-dihydroquinolin-1(2H)-yl)-methanone]
> 7.30 | O=C(c1cncc(-c2ccc3c(c2)OCC3)n1)N1CCOc2ccccc21 [Compound 13, (2,3-Dihydro-4H-benzo[b][1,4]oxazin-4-yl)(6-(2,3-dihydrobenzofuran-6-yl)pyrazin-2-yl)methanone]
> 7.30 | COc1ccc(-c2cncc(C(=O)N3CCCc4ccccc43)n2)cc1 [Compound 14, (3,4-Dihydroquinolin-1(2H)-yl)(6-(4-methoxyphenyl)pyrazin-2-yl)methanone]
> 7.30 | O=C(c1cncc(-c2ccccc2)n1)N1CCCc2ccccc21 [Compound 15, (3,4-Dihydroquinolin-1(2H)-yl)(6-phenylpyrazin-2-yl)methanone]
> 7.30 | O=C(c1cncc(-c2ccc(F)cc2)c1)N1CCCc2ccccc21 [Compound 16, (3,4-Dihydroquinolin-1(2H)-yl)(5-(4-fluorophenyl)pyridin-3-yl)methanone]
> 7.30 | COc1ccc(-c2cncc(C(=O)N3CCCc4ccccc43)c2)cc1 [Compound 18, (3,4-Dihydroquinolin-1(2H)-yl)(5-(4-methoxyphenyl)pyridin-3-yl)methanone]
> 7.30 | O=C(c1cncc(-c2ccc(F)c(F)c2)c1)N1CCOc2ccccc21 [Compound 19, (5-(3,4-Difluorophenyl)pyridin-3-yl)(2,3-dihydro-4H-benzo[b][1,4]oxazin-4-yl)-methanone]
> 7.30 | O=C(c1cncc(-c2ccc(F)cc2)n1)N1CCOc2ccccc21 [Compound 20, (2,3-Dihydro-4H-benzo[b][1,4]oxazin-4-yl)(6-(4-fluorophenyl)pyrazin-2-yl)-methanone]
